Source: patent US9951064B2, “Azaindazole compounds as inhibitors of T790M containing EGFR mutants” (Genentech, Inc., priority 2013, dated 2018)
pEC50, pKi: −log10 of the molar value. Where two headings read alike, the source gives them in different places.

Experiments:
[1] = target: T1, phosphor-EGFR in H1975(L585R/T790M) mutant EGFR expressing cells (Homo sapiens, UniProt P00533, L858R/T790M); assay: H1975 pEGFR MSD cellular assay; assay type: cell-based; conditions: NCI-H1975 cells, serum starved, 1 hour compound incubation, pEGFR Tyr1068 MSD; read-out: HI975 pEGFR EC50
T1 construct: host or cells: NCI-H1975
Method in brief: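 NCI-H1975 cells, 30,000/well, serum-starved overnight, then treated 1 hour at 37° C with serially diluted compounds in serum-free medium (0.5% DMSO). Lysates captured on anti-phospho-EGFR plates overnight at 4° C, detected with SULFO-TAG anti-total EGFR by electrochemiluminescence. Inhibition vs untreated controls; EC50 from 4-parameter logistic fit.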

EGFR del746-750 T790M = target: T2, EGFR del746-750 T790M (Homo sapiens, UniProt P00533, DEL746-750/T790M); assay: EGFR del746-750 T790M biochemical assay (Caliper mobility shift); conditions: 5 μM ATP; apparent Ki (Morrison fit) converted by Cheng-Prusoff, Km of ATP 2.1 μM; read-out: EGFR(T790M/d746-750) Ki
T2 construct: purchased Carna Biosciences 08-528
Method in brief: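 Kinase reactions ran 30 min at room temperature (22 °C), then were stopped with 80 mM EDTA. Phosphorylated product and substrate were separated electrophoretically and quantified by Caliper mobility shift.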

[2] = test system: H1975 (EGFR T790M/L858R) cell proliferation; assay: H1975 proliferation assay (Cell Titer-Glo); assay type: cell-based; conditions: NCI-H1975 cells, 72 hour incubation, read-out: H1975 antiproliferative EC50
Description: H1975 Proliferation Assays
All cell culture reagents were purchased from Invitrogen/Gibco. Cells are cultured at 37° C. at 5% CO2 and split as recommended by ATCC.

EGFR T790M L858R = target: T3, EGFR T790M L858R (Homo sapiens, UniProt P00533, L858R/T790M); assay: EGFR T790M L858R biochemical assay (Caliper mobility shift); conditions: 5 μM ATP; apparent Ki (Morrison fit) converted by Cheng-Prusoff, Km of ATP 1.3 μM
T3 construct: purchased Life Technologies PV4879
Method in brief: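 Reactions run 30 minutes at room temperature (22 °C), stopped with 80 mM EDTA. Phosphorylated product and substrate separated electrophoretically and quantified by Caliper mobility shift.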

T2 sequence (P00533 with tags, fused parts or gaps DEL746-750/T790M limits assumed): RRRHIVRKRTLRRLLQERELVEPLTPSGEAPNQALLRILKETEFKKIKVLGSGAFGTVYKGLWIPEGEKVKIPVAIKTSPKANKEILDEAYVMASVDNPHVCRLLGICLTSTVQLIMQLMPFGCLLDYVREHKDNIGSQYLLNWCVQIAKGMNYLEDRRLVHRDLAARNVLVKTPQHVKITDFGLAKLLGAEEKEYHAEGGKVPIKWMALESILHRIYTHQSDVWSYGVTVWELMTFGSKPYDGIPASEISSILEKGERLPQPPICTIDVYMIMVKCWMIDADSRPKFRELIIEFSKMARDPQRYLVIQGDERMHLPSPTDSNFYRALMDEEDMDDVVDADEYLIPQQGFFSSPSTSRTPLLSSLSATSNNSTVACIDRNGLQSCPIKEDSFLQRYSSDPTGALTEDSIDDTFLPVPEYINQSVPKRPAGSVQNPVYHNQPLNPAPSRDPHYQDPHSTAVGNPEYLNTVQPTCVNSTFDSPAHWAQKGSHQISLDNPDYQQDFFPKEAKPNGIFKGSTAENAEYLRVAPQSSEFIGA
T3 sequence (P00533 25-1210 T790M/L858R): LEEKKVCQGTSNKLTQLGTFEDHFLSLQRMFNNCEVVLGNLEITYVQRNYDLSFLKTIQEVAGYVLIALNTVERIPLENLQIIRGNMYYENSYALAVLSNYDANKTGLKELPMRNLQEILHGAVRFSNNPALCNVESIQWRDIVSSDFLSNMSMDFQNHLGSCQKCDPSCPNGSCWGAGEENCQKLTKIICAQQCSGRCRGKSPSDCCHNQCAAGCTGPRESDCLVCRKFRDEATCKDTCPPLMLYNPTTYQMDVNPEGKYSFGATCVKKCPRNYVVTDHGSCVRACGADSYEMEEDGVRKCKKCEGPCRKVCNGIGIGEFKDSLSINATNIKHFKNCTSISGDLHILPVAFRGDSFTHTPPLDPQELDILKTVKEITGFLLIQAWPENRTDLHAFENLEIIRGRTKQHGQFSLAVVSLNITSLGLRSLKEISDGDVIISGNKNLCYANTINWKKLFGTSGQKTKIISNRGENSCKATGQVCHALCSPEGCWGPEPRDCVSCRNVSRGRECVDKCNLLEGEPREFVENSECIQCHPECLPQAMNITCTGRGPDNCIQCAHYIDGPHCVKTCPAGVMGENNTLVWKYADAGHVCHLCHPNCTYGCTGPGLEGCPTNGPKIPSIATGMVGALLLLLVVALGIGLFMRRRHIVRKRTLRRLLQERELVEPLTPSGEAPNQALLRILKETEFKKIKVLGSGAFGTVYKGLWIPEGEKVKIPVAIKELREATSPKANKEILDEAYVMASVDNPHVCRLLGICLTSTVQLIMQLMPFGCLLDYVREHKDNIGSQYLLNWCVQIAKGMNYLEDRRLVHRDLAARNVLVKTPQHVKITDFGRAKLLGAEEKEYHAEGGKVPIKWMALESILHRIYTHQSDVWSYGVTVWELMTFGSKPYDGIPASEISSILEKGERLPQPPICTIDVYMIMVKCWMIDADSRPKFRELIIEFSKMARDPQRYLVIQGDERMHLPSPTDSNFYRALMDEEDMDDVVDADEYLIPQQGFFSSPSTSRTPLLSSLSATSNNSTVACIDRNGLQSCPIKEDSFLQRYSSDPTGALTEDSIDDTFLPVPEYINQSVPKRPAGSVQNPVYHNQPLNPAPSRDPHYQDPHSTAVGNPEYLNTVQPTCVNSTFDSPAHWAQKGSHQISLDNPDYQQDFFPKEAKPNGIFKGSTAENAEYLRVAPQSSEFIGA
T1 sequence (P00533 25-1210 T790M/L858R): as above

| Compound | pEC50 [1] | pKi (EGFR del746-750 T790M) | pEC50 ([2]; Homo sapiens, NCI-H1975, 72 h) | pKi (EGFR T790M L858R) | pEC50 [2] |
| --- | --- | --- | --- | --- | --- |
| CC[C@@H](C)n1nc(N2CC3(COC3)C2)c2cnc(Nc3ccnc(N4CC[C@@](C)(O)[C@@H](F)C4)n3)cc21 (single isomer, unassigned) [Example 68, (3R*,4S*)-1-{4-[1-((R)-sec-Butyl)-3-(2-oxa-6-azaspiro[3.3]hept-6-yl)-1H-pyrazolo[4,3-c]pyridin-6-ylamino]pyrimidin-2-yl}-3-fluoro-4-methylpiperidin-4-ol] | 6.80 | 7.99 | 6.07 | 8.49 |  |
| CC(C)n1nc(N2CCC(O)C2)c2cnc(Nc3ccnc(N4CC[C@@H](O)[C@@H](F)C4)n3)cc21 (single isomer, unassigned) [Example 105, (3S*,4R*)-3-fluoro-1-(4-((3-((R)-3-hydroxypyrrolidin-1-yl)-1-isopropyl-1H-pyrazolo[4,3-c]pyridin-6-yl)amino)pyrimidin-2-yl)piperidin-4-ol] | 6.89 | 8.57 | 6.67 | 8.92 |  |
| CCC(C)n1nc(N2CC(C(C)(C)O)C2)c2cnc(Nc3ccnc(N4CC[C@@H](O)[C@@H](F)C4)n3)cc21 (single isomer, unassigned) [Example 193, (3S,4R)-1-(4-((1-((R*)-sec-Butyl)-3-(3-(2-hydroxypropan-2-yl)azetidin-1-yl)-1H-pyrazolo[4,3-c]pyridin-6-yl)amino)pyrimidin-2-yl)-3-fluoropiperidin-4-ol] | 6.89 | 8.25 | 6.48 | 8.74 |  |
| CCC(C)n1nc(N2CC3(COC3)C2)c2cnc(Nc3ccnc(N4CC[C@@H](O)[C@@H](F)C4)n3)cc21 (single isomer, unassigned) [Example 197, (3S,4R)-1-(4-((1-((R*)-sec-Butyl)-3-(2-oxa-6-azaspiro[3.3]heptan-6-yl)-1H-pyrazolo[4,3-c]pyridin-6-yl)amino)pyrimidin-2-yl)-3-fluoropiperidin-4-ol] | 7.89 | 8.57 |  | 8.92 | 6.83 |
| CCC(C)n1nc(N2CC3(COC3)C2)c2cnc(Nc3ccnc(N4CC[C@@H](O)[C@@H](F)C4)n3)cc21 (single isomer, unassigned) [Example 198, (3S,4R)-1-(4-((1-((S*)-sec-Butyl)-3-(2-oxa-6-azaspiro[3.3]heptan-6-yl)-1H-pyrazolo[4,3-c]pyridin-6-yl)amino)pyrimidin-2-yl)-3-fluoropiperidin-4-ol] | 7.79 | 8.51 |  | 8.82 | 6.46 |
| CC(C)n1nc(N2CCC(O)C2=O)c2cnc(Nc3ccnc(-c4cnn(S(=O)(=O)C5CC5)c4)n3)cc21 (stereo in doubt) [Example 199, (S)-1-(6-((2-(1-(Cyclopropylsulfonyl)-1H-pyrazol-4-yl)pyrimidin-4-yl)amino)-1-isopropyl-1H-pyrazolo[4,3-c]pyridin-3-yl)-3-hydroxypyrrolidin-2-one] | 6.64 | 8.82 | 6.20 | 8.82 |  |
| COC1CCN(c2nccc(Nc3cc4c(cn3)c(N3CC5(COC5)C3)nn4C(C)C)n2)CC1 [Example 2, 1-Isopropyl-N-(2-(4-methoxypiperdin-1-yl)pyrimidin-4-yl)-3-(2-oxa-6-azaspiro[3.3]heptan-6-yl)-1H-pyrazolo[4,3-c]pyridine-6-amine] | 7.09 | 8.01 | 6.41 | 8.68 |  |
| CC(C)n1nc(N2CC3(COC3)C2)c2cnc(Nc3ccnc(N4CCC(O)C(C)(C)C4)n3)cc21 (centres unmarked) [Example 3, 1-(4-((1-Isopropyl-3-(2-oxa-6-azaspiro[3.3]heptan-6-yl)-1H-pyrazolo[4,3-c]pyridin-6-yl)amino)pyrimidin-2-yl)-3,3-dimethylpiperidin-4-ol] | 7.41 | 8.80 | 6.80 | 8.85 |  |
| CC(C)n1nc(NCCO)c2cnc(Nc3ccnc(-c4cnn(S(=O)(=O)C5CC5)c4)n3)cc21 [Example 6, 2-((6-((2-(1-(Cyclopropylsulfonyl)-1H-pyrazol-4-yl)pyrimidin-4-yl)amino)-1-isopropyl-1H-pyrazolo[4,3-c]pyridin-3-yl)amino)ethanol] | 7.13 | 8.92 | 6.06 | 9.05 |  |
| CC(C)n1nc(N2CCCC2)c2cnc(Nc3ccnc(N4CCC(O)C(C)(C)C4)n3)cc21 (centres unmarked) [Example 8, 1-(4-((1-Isopropyl-3-(pyrrolidin-1-yl)-1H-pyrazolo[4,3-c]pyridin-6-yl)amino)pyrimidin-2-yl)-3,3-dimethylpiperidin-4-ol] | 7.52 | 8.89 | 6.30 | 8.89 |  |
| Cc1cn[nH]c1-c1nn(C(C)C)c2cc(Nc3ccnc(N4CCC(O)C(C)(C)C4)n3)ncc12 (centres unmarked) [Example 10, 1-(4-((1-Isopropyl-3-(4-methyl-1H-pyrazol-5-yl)-1H-pyrazolo[4,3-c]pyridin-6-yl)amino)pyrimidin-2-yl)-3,3-dimethylpiperidin-4-ol] | 6.46 | 7.49 | 5.77 | 8.12 |  |
| COC1CCN(c2nccc(Nc3cc4c(cn3)c(N3CCCC3)nn4C(C)C)n2)CC1 [Example 15, 1-Isopropyl-N-(2-(4-methoxypiperidin-1-yl)pyrimidin-4-yl)-3-(pyrrolidin-1-yl)-1H-pyrazolo[4,3-c]pyridin-6-amine] | 7.58 | 8.55 | 6.42 | 8.92 |  |
| CCS(=O)(=O)n1cc(-c2nccc(Nc3cc4c(cn3)c(N3CC(C(=O)N(C)C)C3)nn4C(C)C)n2)cn1 [Example 17, 1-(6-(2-(1-(Ethylsulfonyl)-1H-pyrazol-4-yl)pyrimidin-4-ylamino)-1-isopropyl-1H-pyrazolo[4,3-c]pyridin-3-yl)-N, N-dimethylazetidine-3-carboxamide] | 7.72 | 9.10 | 6.63 | 9.15 |  |
| CC(C)n1nc(N2CCC(O)C2)c2cnc(Nc3ccnc(-c4cnn(S(=O)(=O)C5CC5)c4)n3)cc21 (centres unmarked) [Example 18, 1-(6-(2-(1-(Cyclopropylsulfonyl)-1H-pyrazol-4-yl)pyrimidin-4-ylamino)-1-isopropyl-1H-pyrazolo[4,3-c]pyridin-3-yl) pyrrolidin-3-ol] | 8.12 | 9.22 | 6.70 | 9.10 |  |
| COC1CCN(c2nccc(Nc3cc4c(cn3)c(N)nn4C[C@H]3CC[C@H](N)CC3)n2)CC1 [Example 24, 1-(4-(Aminocyclohexyl)methyl)-N^6-[2-(4-methoxypiperidin-1-yl)-pyrimidin-4-yl]-1H-pyrazolo[4,3-c]pyridine-3,6-diamine] | 5.69 | 8.01 | < 5.00 | 8.04 |  |
| CCC(C)n1nc(N2CCNC2=O)c2cnc(Nc3ccnc(-c4cnn(S(=O)(=O)C5CC5)c4)n3)cc21 (centres unmarked) [Example 25, 1-(1-(sec-Butyl)-6-((2-(1-(cyclopropylsulfonyl)-1H-pyrazol-4-yl)pyrimidin-4-yl)amino)-1H-pyrazolo[4,3-c]pyridin-3-yl)imidazolidin-2-one] | 7.42 | 8.60 | 6.86 | 9.00 |  |
| CC(C)n1nc(NC2COC2)c2cnc(Nc3ccnc(-c4cnn(S(=O)(=O)C5CC5)c4)n3)cc21 [Example 35, N^6-(2-(1-(cyclopropylsulfonyl)-1H-pyrazol-4-yl)pyrimidin-4-yl)-1-isopropyl-N^3-(oxetan-3-yl)-1H-pyrazolo[4,3-c]pyridine-3,6-diamine] | 7.47 | 9.30 | 6.78 | 9.15 |  |
| CC(C)n1nc(N2CC(O)C2)c2cnc(Nc3ccnc(-c4cnn(S(=O)(=O)C5CC5)c4)n3)cc21 [Example 37, 1-(6-(2-(1-(cyclopropylsulfonyl)-1H-pyrazol-4-yl)pyrimidin-4-ylamino)-1-isopropyl-1H-pyrazolo[4,3-c]pyridin-3-yl)azetidin-3-ol] | 7.04 | 9.10 | 5.95 | 8.85 |  |
| CCS(=O)(=O)n1cc(-c2nccc(Nc3cc4c(cn3)c(NC3CCOC3)nn4C(C)C)n2)cn1 (centres unmarked) [Example 38, N6-(2-(1-(ethylsulfonyl)-1H-pyrazol-4-yl)pyrimidin-4-yl)-1-isopropyl-N3-(tetrahydrofuran-3-yl)-1H-pyrazolo[4,3-c]pyridine-3,6-diamine] | 7.39 | 8.62 | 6.57 | 8.96 |  |
| CC(C)n1nc(N2CCOC(CO)C2)c2cnc(Nc3ccnc(-c4cnn(S(=O)(=O)C5CC5)c4)n3)cc21 (centres unmarked) [Example 53, (4-(6-(2-(1-(cyclopropylsulfonyl)-1H-pyrazol-4-yl)pyrimidin-4-ylamino)-1-isopropyl-1H-pyrazolo[4,3-c]pyridin-3-yl)morpholin-2-yl)methanol] | 7.27 | 9.05 | 6.62 | 8.92 |  |
